Measured values published in PubChem BioAssay (NCI).
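Step 1: Grow cells in 96-well plates. Step 2: Expose to compound for 48 hours at 5 concentrations. Step 3: Interpolate endpoints linearly; if unreached, use highest concentration. The concentration for full growth arrest is given as TGI.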

What was measured:
Assay in all cases: NCI-60 cell line screen, 48 h
[1] = test system: SNB-75 CNS
[2] = test system: MCF7 breast
[3] = test system: PC-3 prostate
[4] = test system: RPMI-8226 leukemia
[5] = test system: OVCAR-8 ovarian
[6] = test system: DU-145 prostate
[7] = test system: TK-10 renal
[8] = test system: SN12C renal
[9] = test system: IGROV1 ovarian
[10] = test system: MDA-MB-231 breast

## COc1ccc(NC=O)c(C(O)CCNC(C)=O)c1 (stereo not drawn)
[1]
  TGI: > 100 µM
[2]
  TGI: > 100 µM
[3]
  TGI: > 100 µM
[4]
  TGI: > 100 µM
[5]
  TGI: > 100 µM
[6]
  TGI: > 100 µM
[7]
  TGI: > 100 µM
[8]
  TGI: > 100 µM
[9]
  TGI: > 100 µM
[10]
  TGI: > 100 µM

## CC(C)=CCC/C(C)=C/Cc1cc(/C=C/c2cc(O)c(CC=C(C)C)c(O)c2)cc(O)c1O
[1]
  TGI: 7.57 µM
[2]
  TGI: 13.4 µM
[3]
  TGI: 11.9 µM
[4]
  TGI: 3.68 µM
[5]
  TGI: 14.9 µM
[6]
  TGI: 26.6 µM
[7]
  TGI: 14.2 µM
[8]
  TGI: 3.95 µM
[9]
  TGI: 6.81 µM
[10]
  TGI: 23.8 µM

## O=C(Cc1ccccc1)N/N=C(/CCN1CCCC1)CC(c1ccccc1)c1c(O)c2ccccc2oc1=O (stereo not drawn)
[1]
  TGI: > 100 µM
[2]
  TGI: > 100 µM
[3]
  TGI: > 100 µM
[4]
  TGI: > 100 µM
[5]
  TGI: > 100 µM
[6]
  TGI: > 100 µM
[7]
  TGI: > 100 µM
[9]
  TGI: > 100 µM
[10]
  TGI: > 100 µM

## Cc1ccc2c(c1)C(C1Cc3c(C)cccc3C1=O)OC2=O (stereo not drawn)
[1]
  TGI: > 100 µM
[2]
  TGI: > 100 µM
[3]
  TGI: > 100 µM
[4]
  TGI: > 100 µM
[5]
  TGI: > 100 µM
[6]
  TGI: > 100 µM
[7]
  TGI: > 100 µM
[8]
  TGI: > 100 µM
[9]
  TGI: > 100 µM
[10]
  TGI: > 100 µM

## O=C(O)CCC(=O)Nc1ccc2c(c1)S(=O)(=O)N(CC(=O)O)C2=O
[2]
  TGI: > 100 µM
[3]
  TGI: > 100 µM
[4]
  TGI: > 100 µM
[5]
  TGI: > 100 µM
[6]
  TGI: > 100 µM
[7]
  TGI: > 100 µM
[8]
  TGI: > 100 µM
[9]
  TGI: > 100 µM
[10]
  TGI: > 100 µM

## O=C(/C=C/c1ccc(O)c(O)c1)NC(CO)C(=O)O (stereo not drawn)
[1]
  TGI: > 100 µM
[2]
  TGI: > 100 µM
[3]
  TGI: > 100 µM
[4]
  TGI: > 100 µM
[5]
  TGI: > 100 µM
[6]
  TGI: > 100 µM
[7]
  TGI: > 100 µM
[8]
  TGI: > 100 µM
[10]
  TGI: > 100 µM

## COc1ccc(NC(=O)C2=C(SC)C(C#N)C(=O)N=C2N)cc1 (stereo not drawn)
[2]
  TGI: > 100 µM
[3]
  TGI: > 100 µM
[4]
  TGI: > 100 µM
[6]
  TGI: > 100 µM
[7]
  TGI: > 100 µM
[8]
  TGI: > 100 µM
[9]
  TGI: > 100 µM
[10]
  TGI: > 100 µM

## CSC1=N/C(=C\c2cccs2)C(=O)N1CN1CCCCC1
[1]
  TGI: > 100 µM
[2]
  TGI: > 100 µM
[3]
  TGI: > 100 µM
[4]
  TGI: 68.8 µM
[5]
  TGI: > 100 µM
[6]
  TGI: > 100 µM
[7]
  TGI: > 100 µM
[8]
  TGI: > 100 µM
[9]
  TGI: > 100 µM
[10]
  TGI: > 100 µM

## CCCCCCC(N)(CCCCCC)C(=O)Nn1c(C)ccc1C
[1]
  TGI: > 100 µM
[2]
  TGI: 59.4 µM
[3]
  TGI: > 100 µM
[4]
  TGI: > 100 µM
[5]
  TGI: > 100 µM
[6]
  TGI: > 100 µM
[7]
  TGI: > 100 µM
[8]
  TGI: > 100 µM
[9]
  TGI: > 100 µM
[10]
  TGI: > 100 µM

## C/C(C=O)=N\Nc1cc(C)c2ccccc2n1
[1]
  TGI: 30.3 µM
[2]
  TGI: 29.5 µM
[3]
  TGI: 33 µM
[4]
  TGI: 39 µM
[5]
  TGI: 34.8 µM
[6]
  TGI: 29.9 µM
[7]
  TGI: 29.5 µM
[8]
  TGI: 33 µM
[9]
  TGI: 32.1 µM
[10]
  TGI: 32.3 µM

## NC(=S)N/N=C/c1cc(CN2CCOCC2)c(N)cn1
[1]
  TGI: 89.4 µM
[2]
  TGI: > 100 µM
[3]
  TGI: > 100 µM
[4]
  TGI: > 100 µM
[5]
  TGI: > 100 µM
[6]
  TGI: > 100 µM
[7]
  TGI: > 100 µM
[8]
  TGI: > 100 µM
[9]
  TGI: > 100 µM
[10]
  TGI: > 100 µM

## CN1CC=C(OP(=O)(NCc2ccccc2)N(CCCl)CCCl)CC1 (stereo not drawn)
[1]
  TGI: > 100 µM
[2]
  TGI: > 100 µM
[3]
  TGI: > 100 µM
[4]
  TGI: > 100 µM
[5]
  TGI: > 100 µM
[6]
  TGI: > 100 µM
[7]
  TGI: > 100 µM
[8]
  TGI: > 100 µM
[9]
  TGI: > 100 µM
[10]
  TGI: > 100 µM

## CN(C)c1ccc(C2CC(=O)CC(c3ccc(N(C)C)cc3)C23C(=O)NC(=O)NC3=O)cc1 (stereo not drawn)
[1]
  TGI: > 25 µM
[2]
  TGI: > 25 µM
[3]
  TGI: > 25 µM
[4]
  TGI: > 25 µM
[5]
  TGI: > 25 µM
[6]
  TGI: > 25 µM
[7]
  TGI: > 25 µM
[8]
  TGI: > 25 µM
[9]
  TGI: > 25 µM
[10]
  TGI: > 25 µM

## CC(=O)c1c2c(cc3c1CC1(Cc4cc5c(cc4C1)CCC5)C3)CCC2
[1]
  TGI: > 100 µM
[2]
  TGI: > 100 µM
[3]
  TGI: > 100 µM
[4]
  TGI: > 100 µM
[5]
  TGI: > 100 µM
[6]
  TGI: > 100 µM
[7]
  TGI: > 100 µM
[9]
  TGI: > 100 µM
[10]
  TGI: > 100 µM

## CC[C@@]1(O)C(=O)OCc2c1c(Cl)c1n(c2=O)Cc2cc3ccccc3nc2-1
[1]
  TGI: 12.7 µM
[2]
  TGI: > 34.7 µM
[3]
  TGI: > 100 µM
[4]
  TGI: > 100 µM
[5]
  TGI: 22.9 µM
[6]
  TGI: 8.63 µM
[7]
  TGI: > 79.5 µM
[8]
  TGI: > 61.8 µM
[9]
  TGI: 42.9 µM
[10]
  TGI: > 100 µM

## CC1CN=C(NCc2ccccc2)S1 (stereo not drawn)
[1]
  TGI: > 100 µM
[2]
  TGI: > 100 µM
[4]
  TGI: > 100 µM
[6]
  TGI: > 100 µM
[7]
  TGI: > 100 µM
[8]
  TGI: > 100 µM
[10]
  TGI: > 100 µM

## COC(=O)n1c(=O)nc2c3c(ncn21)Oc1c(c(-c2ccccc2)nn1-c1ccccc1)C3c1ccc(Cl)cc1 (stereo not drawn)
[1]
  TGI: 7.69 µM
[2]
  TGI: 3.06 µM
[3]
  TGI: 2.94 µM
[4]
  TGI: 4.07 µM
[6]
  TGI: 2.98 µM
[7]
  TGI: 3.37 µM
[8]
  TGI: 3.1 µM
[10]
  TGI: 3.05 µM

## CN(C(=O)C1=CCCCCC1)c1ccccc1I
[1]
  TGI: 79.7 µM
[2]
  TGI: > 100 µM
[3]
  TGI: > 100 µM
[4]
  TGI: > 100 µM
[5]
  TGI: > 100 µM
[6]
  TGI: > 100 µM
[8]
  TGI: > 100 µM
[9]
  TGI: > 100 µM
[10]
  TGI: > 100 µM

## CCOC(=O)CCc1c(C(=O)OCC)[nH]c(/C=C2/NC(=O)C(C)=C2CC)c1C
[1]
  TGI: 42.7 µM
[2]
  TGI: 17.7 µM
[3]
  TGI: > 100 µM
[5]
  TGI: > 100 µM
[6]
  TGI: 44.6 µM
[7]
  TGI: 88.2 µM
[8]
  TGI: 37.9 µM
[9]
  TGI: 47.7 µM
[10]
  TGI: 48.3 µM

## Cc1ccc2c(ccc3c[n+]4ccccc4c(C)c32)c1
[2]
  TGI: 15.6 µM
[3]
  TGI: 15.9 µM
[4]
  TGI: 67.2 µM
[5]
  TGI: 16.2 µM
[6]
  TGI: 26.6 µM
[7]
  TGI: 89.9 µM
[8]
  TGI: 3.46 µM
[9]
  TGI: 34.7 µM
[10]
  TGI: 23.1 µM

## COc1c(O)cc(/C=C/c2cc(O)cc3c2[C@@]2(C(=O)O3)c3c(O)cc(O)cc3OC2c2cccc(O)c2)cc1O (stereo partly drawn)
[2]
  TGI: > 100 µM
[3]
  TGI: > 100 µM
[4]
  TGI: 52.8 µM
[5]
  TGI: > 100 µM
[6]
  TGI: > 100 µM
[7]
  TGI: > 100 µM
[8]
  TGI: 64.3 µM
[9]
  TGI: > 100 µM
[10]
  TGI: > 100 µM

## Oc1cn(-c2ccc(Cl)cc2)nc1-c1nnc(Nc2ccccc2)o1
[1]
  TGI: 45.2 µM
[2]
  TGI: 33.9 µM
[5]
  TGI: 43.6 µM
[6]
  TGI: 42.1 µM
[7]
  TGI: 38.1 µM
[8]
  TGI: 32.2 µM
[9]
  TGI: 32.4 µM
[10]
  TGI: 27.4 µM
